Measurements reported in patent publication US7807841B2, “Spiro-containing compounds and compositions as modulators of steroid hormone nuclear receptors” (IRM LLC, priority 2005, dated 2010).

These molecules were tested against T1, Androgen Receptor (AR) (Homo sapiens, UniProt P10275) (assay: Functional assay of androgen receptor antagonism (MMTV luciferase reporter in MDA-kb2 cells)). Settings: antagonism of dihydrotestosterone (0.3 nM)-induced AR activity.
T1 sequence (P10275 1-920 Q868H): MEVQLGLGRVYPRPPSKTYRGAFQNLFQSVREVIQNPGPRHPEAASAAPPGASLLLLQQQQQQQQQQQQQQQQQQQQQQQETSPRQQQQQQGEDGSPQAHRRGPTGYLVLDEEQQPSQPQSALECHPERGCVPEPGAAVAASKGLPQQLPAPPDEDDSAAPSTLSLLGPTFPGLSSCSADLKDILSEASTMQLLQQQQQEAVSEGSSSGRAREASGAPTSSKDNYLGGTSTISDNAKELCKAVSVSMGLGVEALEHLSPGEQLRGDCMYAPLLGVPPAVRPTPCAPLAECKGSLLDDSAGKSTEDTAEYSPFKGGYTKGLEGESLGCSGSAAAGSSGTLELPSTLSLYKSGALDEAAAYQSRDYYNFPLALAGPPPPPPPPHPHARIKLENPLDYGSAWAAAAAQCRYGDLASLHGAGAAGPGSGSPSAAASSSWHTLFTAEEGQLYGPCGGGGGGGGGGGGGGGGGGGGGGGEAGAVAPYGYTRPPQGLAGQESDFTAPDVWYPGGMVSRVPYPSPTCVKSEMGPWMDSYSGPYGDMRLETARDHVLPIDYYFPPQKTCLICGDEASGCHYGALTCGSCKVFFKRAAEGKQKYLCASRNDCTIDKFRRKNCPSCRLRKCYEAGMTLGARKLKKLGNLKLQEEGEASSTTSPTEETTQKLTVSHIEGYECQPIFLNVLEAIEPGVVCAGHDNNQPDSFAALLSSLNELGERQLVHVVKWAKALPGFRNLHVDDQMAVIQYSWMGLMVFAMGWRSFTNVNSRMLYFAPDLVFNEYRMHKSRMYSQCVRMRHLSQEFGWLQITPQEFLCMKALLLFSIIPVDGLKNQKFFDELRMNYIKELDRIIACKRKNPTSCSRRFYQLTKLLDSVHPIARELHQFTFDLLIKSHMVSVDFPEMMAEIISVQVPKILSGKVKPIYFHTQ
Type: cell-based
Description: The AR antagonist activity of the compounds is determined with the MDA-Kb2 cell line (ATCC), which stably expresses the MMTV luciferase reporter. The MMTV promoter is a mouse mammary tumor virus promoter that contains androgen receptor response elements. […] Upon stimulation with AR ligands, such as dihydrotestosterone, the MMTV luciferase reporter can be activated.
The assay is performed in 384 well plates. Briefly, MDA-kb2 cells are plated in 384 well plates at a density of approximately 2.4×10^4 cells/well in 50 μl medium. The medium is supplemented with 5% charcoal-dextran treated fetal bovine serum (Hyclone). Twenty four hours later, compounds prepared in DMSO are transferred to the cells. The cells are then stimulated with 0.3 nM final concentration of dihydrotestosterone (Sigma) and incubated at 37° C. for another 24 hours before the luciferase activity is assayed with 20 μl of Bright-Glo (Promega) using a luminometer (CLIPR). The expression of luciferase is used as an indicator of dihydrotestosterone-induced AR trans-activation. Each compound is tested in duplicates with a 12-concentration titration. IC50 values (defined as the concentration of test compound required to antagonize 50% of dihydrotestosterone-induced AR activity) are determined from the dose-response curve.

| SMILES | IC50 |
| --- | --- |
| O=C1CCCC2(C(F)(F)F)OC3(CN12)c1ccccc1C=Cc1ccccc13 (stereo not shown) [FRS-11] | 100 to 1000 nM |
| CC12CCC(=O)N1CC1(O2)c2ccccc2C=Cc2ccccc21 (single isomer, unassigned) [FRS-1 (Chiral Synthesis)] | 100 to 1000 nM |
| O=C1CCC2(c3ccc(F)cc3)OC3(CN12)c1ccccc1C=Cc1ccccc13 (stereo not shown) [FRS-3] | 1000 to 10000 nM |
| O=C1CCC2(c3ccccc3)OC3(CN12)c1ccccc1C=Cc1ccccc13 (stereo not shown) [FRS-2] | 100 to 1000 nM |
| CC12CCC(=O)N1CC1(O2)c2ccccc2CCc2ccccc21 (stereo not shown) [FRS-13] | 100 to 1000 nM |
| CC12CCC(=O)N1CC1(O2)c2ccccc2CCc2ccccc21 (single isomer, unassigned) [FRS-13 (Chiral Synthesis)] | 100 to 1000 nM |
| O=C1CCC2(c3cccs3)OC3(CN12)c1ccccc1C=Cc1ccccc13 (stereo not shown) [FRS-8] | 100 to 1000 nM |
| O=C1CCC2(C3CC3)OC3(CN12)c1ccccc1C=Cc1ccccc13 (stereo not shown) [FRS-10] | 100 to 1000 nM |
| CCCC12CCC(=O)N1CC1(O2)c2ccccc2C=Cc2ccccc21 (stereo not shown) [FRS-9] | 100 to 1000 nM |
| CC12CCCC(=O)N1CC1(O2)c2ccccc2CCc2ccccc21 (stereo not shown) [FRS-14] | 1000 to 10000 nM |
| COc1ccc(C23CCC(=O)N2CC2(O3)c3ccccc3C=Cc3ccccc32)cc1 (stereo not shown) [FRS-5] | > 10000 nM |
| CC12CCCC(=O)N1CC1(O2)c2ccccc2C=Cc2ccccc21 (stereo not shown) [FRS-4] | > 10000 nM |
| CC12CCC(=O)N1CC1(O2)c2ccccc2C=Cc2ccccc21 (stereo not shown) [FRS-1] | 100 to 1000 nM |
| CC12CCCCC(=O)N1CC1(O2)c2ccccc2C=Cc2ccccc21 (stereo not shown) [FRS-6] | 1000 to 10000 nM |

The remaining lines, values ahead:

| IC50 | SMILES |
| --- | --- |
| 1000 to 10000 nM | CC(=O)N1CC2(OC13CCCCC3)c1ccccc1C=Cc1ccccc12 [SOXS-6] |
| 1000 to 10000 nM | CC(=O)N1CC2(OC1(C)C)c1ccccc1C=Cc1ccccc12 [SOXS-3] |
| 1000 to 10000 nM | Oc1ccc(C2=NCC3(O2)c2ccccc2C=Cc2ccccc23)cc1 [OXS-1] |
| > 10000 nM | CC1(C)OC2(CN1C(=O)Nc1ccc(F)cc1F)c1ccccc1C=Cc1ccccc12 [SOXS-1] |
| 1000 to 10000 nM | CC1(C)OC2(CN1S(C)(=O)=O)c1ccccc1C=Cc1ccccc12 [SOXS-4] |
